Data set [1] is described as follows: Therapeutic index expressed as ratio of IC50 for 50% toxicity to EC50 for 50% inhibition. The format is cell-based. Conditions: human, H9 cells; read-out: TI.
The next data set deals with H9. The data set can be described thus: Concentration required to produce 50% toxicity against mock-infected H9 cells. It counts as functional, cell-based. Conditions: Homo sapiens.
In data set [2] the test system is Human immunodeficiency virus 1. The data set can be described thus: Concentration required to inhibit 50% of HIV-1 (human immunodeficiency virus-1) replication. The format is functional, organism-based.
Data set [3] concerns Human immunodeficiency virus 1. The data set can be described thus: Concentration required to inhibit 50% of HIV-1 (human immunodeficiency virus-1) replication; No suppression at concentrations up to 100 ug/mL. It counts as functional, organism-based.

As a reminder, the IC50 is the concentration that inhibits the measured activity by half. Read a high IC50 as lower potency. For orientation: EC50 means the midpoint of the concentration-response curve. Low readings indicate a more potent agent, high ones a less potent agent.

With `C=C(C)[C@@H]1CC[C@]2(CO)CC[C@]3(C)[C@H](CC[C@@H]4[C@@]5(C)CC[C@H](OC(=O)CC(C)(C)C(=O)O)C(C)(C)[C@@H]5CC[C@]43C)[C@@H]12`, the selectivity ratio in data set [1] is 5970. In addition, in the data set on H9, the IC50 worked out at 33500 nM. The molecule further came in with an EC50 in data set [2] of 5.6 nM.
In the same order, the values of `C=C(C)[C@@H]1CC[C@]2(CO)CC[C@]3(C)[C@H](CC[C@@H]4[C@@]5(C)CC[C@H](OC(=O)CC(C)(C)CC(=O)O)C(C)(C)[C@@H]5CC[C@]43C)[C@@H]12` are 6570, 28900 nM and 4.4 nM.
`Cc1cn([C@H]2C[C@H](N=[N+]=[N-])[C@@H](CO)O2)c(=O)[nH]c1=O` [ZIDOVUDINE] gave an EC50 in data set [2] of 6.2 nM.
Turning to `CC(C)[C@@H]1CC[C@]2(CO)CC[C@]3(C)[C@H](CC[C@@H]4[C@@]5(C)CC[C@H](OC(=O)CC(C)(C)C(=O)O)C(C)(C)[C@@H]5CC[C@]43C)[C@@H]12`, the selectivity ratio in data set [1] is 16200. The molecule also returned an IC50 with H9 of 27000 nM. In data set [2], this molecule yielded an EC50 of 1.7 nM.
`C=C(C)[C@@H]1CC[C@]2(COC(=O)C(C)(C)CC(=O)O)CC[C@]3(C)[C@H](CC[C@@H]4[C@@]5(C)CC[C@H](OC(=O)CC(C)(C)C(=O)O)C(C)(C)[C@@H]5CC[C@]43C)[C@@H]12`: the selectivity ratio in data set [1] was 42400. For the same molecule, the concentration for a half-maximal effect (EC50) in data set [2] worked out at 0.87 nM.
Take `C=C(C)[C@@H]1CC[C@]2(CO)CC[C@]3(C)[C@H](CC[C@@H]4[C@@]5(C)CC[C@H](OC(=O)COCC(=O)O)C(C)(C)[C@@H]5CC[C@]43C)[C@@H]12`: the selectivity ratio in data set [1] was more than 1820. In the data set on H9, the IC50 is more than 44800 nM. This molecule returned an EC50 in data set [2] of 20 nM.
In the case of `C=C(C)[C@@H]1CC[C@]2(C(=O)O)CC[C@]3(C)[C@H](CC[C@@H]4[C@@]5(C)CC[C@H](OC(=O)CC(C)(C)C(=O)O)C(C)(C)[C@@H]5CC[C@]43C)[C@@H]12` [BEVIRIMAT], the selectivity ratio in data set [1] was more than 20000. In addition, in data set [2], the EC50 is less than 0.35 nM.
Regarding `CC(C)[C@@H]1CC[C@]2(CO)CC[C@]3(C)[C@H](CC[C@@H]4[C@@]5(C)CC[C@H](OC(=O)CC(C)(C)CC(=O)O)C(C)(C)[C@@H]5CC[C@]43C)[C@@H]12`, the selectivity ratio in data set [1] amounted to 19500. The molecule further registered an IC50 with H9 of 25700 nM. The molecule further gave an EC50 in data set [2] of 1.3 nM.
Regarding `C=C(C)[C@@H]1CC[C@]2(CO)CC[C@]3(C)[C@H](CC[C@@H]4[C@@]5(C)CC[C@H](OC(=O)CCC(=O)O)C(C)(C)[C@@H]5CC[C@]43C)[C@@H]12`, in data set [3], the EC50 entry is reported as “No suppression”. In the data set on H9, this molecule came in with an IC50 of 26000 nM.
`C=C(C)[C@@H]1CC[C@]2(C(=O)O)CC[C@]3(C)[C@H](CC[C@@H]4[C@@]5(C)CC[C@H](O)C(C)(C)[C@@H]5CC[C@]43C)[C@@H]12` [BETULINIC ACID]: the selectivity ratio in data set [1] amounted to 9.2. The molecule further had an EC50 in data set [2] of 1400 nM.
In the case of `CC(C)[C@@H]1CC[C@]2(CO)CC[C@]3(C)[C@H](CC[C@@H]4[C@@]5(C)CC[C@H](OC(=O)CCCC(=O)O)C(C)(C)[C@@H]5CC[C@]43C)[C@@H]12`, the selectivity ratio in data set [1] was 1.12e+06. This molecule also gave an IC50 in the data set on H9 of 23600 nM. The same molecule registered an EC50 in data set [2] of 0.02 nM.
In the same order, the values of `C=C(C)[C@@H]1CC[C@]2(CO)CC[C@]3(C)[C@H](CC[C@@H]4[C@@]5(C)CC[C@H](OC(=O)CCCC(=O)O)C(C)(C)[C@@H]5CC[C@]43C)[C@@H]12` are 670, 44400 nM and 60 nM.
As for `C=C(C)[C@@H]1CC[C@]2(COC(=O)CC(C)(C)CC(=O)O)CC[C@]3(C)[C@H](CC[C@@H]4[C@@]5(C)CC[C@H](OC(=O)CC(C)(C)CC(=O)O)C(C)(C)[C@@H]5CC[C@]43C)[C@@H]12`, the selectivity ratio in data set [1] is 21500. The same molecule registered an EC50 in data set [2] of 0.66 nM.

For the origin of these results see ChEMBL document CHEMBL1138700, “3-O-Glutaryl-dihydrobetulin and related monoacyl derivatives as potent anti-HIV agents” (Bioorg Med Chem Lett, 2004).
